The source made the active and inactive calls. The rule behind the calls is not given here.
Columns and labels:
[1] = Cytotoxicity against human LM3 cells assessed as inhibition of cell growth incubated for 24 hrs by MTT assay; assay type: functional, cell-based; conditions: LM3, 24 h
[2] = tested on: HepG2; assay: Cytotoxicity against human HepG2 cells assessed as inhibition of cell growth incubated for 24 hrs by MTT assay; assay type: functional, cell-based; conditions: HepG2, 24 h
[3] = tested on: MHCC97H; assay: Cytotoxicity against human MHCC97H cells assessed as inhibition of cell growth incubated for 24 hrs by MTT assay; assay type: functional, cell-based
[4] = Cytotoxicity against HEK293T cells assessed as inhibition of cell growth incubated for 24 hrs by MTT assay; assay type: toxicity, cell-based, HEK-293T; conditions: human
[5] = tested on: Staphylococcus aureus; assay: Antibacterial activity against Staphylococcus aureus XU212 assessed as inhibition of microbial growth; assay type: functional
[6] = tested on: Staphylococcus aureus; assay: Antibacterial activity against Staphylococcus aureus RN4220 assessed as inhibition of microbial growth; assay type: functional
[7] = tested on: SW-620; assay: Cytotoxicity against human SW620 cells assessed as inhibition of cell growth incubated for 24 hrs by MTT assay; assay type: functional, cell-based; conditions: SW-620, 24 h
[8] = tested on: LS-513; assay: Cytotoxicity against human LS-513 cells assessed as inhibition of cell growth incubated for 24 hrs by MTT assay; assay type: functional, cell-based; conditions: LS-513, 24 h
[9] = tested on: COLO 205; assay: Cytotoxicity against human COLO 205 cells assessed as inhibition of cell growth incubated for 24 hrs by MTT assay; assay type: functional, cell-based; conditions: COLO 205, 24 h
[10] = tested on: Staphylococcus aureus; assay: Antibacterial activity against Staphylococcus aureus SA1199B assessed as inhibition of microbial growth; assay type: functional
[11] = tested on: Staphylococcus aureus; assay: Synergistic antibacterial activity against Staphylococcus aureus SA1199B assessed as inhibition of microbial growth in presence of norfloxacin; assay type: functional
[12] = tested on: Staphylococcus aureus; assay: Synergistic antibacterial activity against Staphylococcus aureus SA1199B assessed as fractional inhibitory concentration index in presence of norfloxacin; assay type: functional
[13] = tested on: Staphylococcus aureus; assay: Synergistic antibacterial activity against Staphylococcus aureus SA1199B assessed as norfloxacin MIC; assay type: functional
[14] = target: T1, Quinolone resistance protein NorA (Staphylococcus aureus) (UniProt P0A0J7); assay: Inhibition of NorA efflux pump in norfloxacin-resisitant Staphylococcus aureus SA1199B overexpressing NorA gene assessed as reduction in EtBr efflux inhibition at 25 uM incubated for 20 mins by fluorometric assay
T1 sequence (whole entry): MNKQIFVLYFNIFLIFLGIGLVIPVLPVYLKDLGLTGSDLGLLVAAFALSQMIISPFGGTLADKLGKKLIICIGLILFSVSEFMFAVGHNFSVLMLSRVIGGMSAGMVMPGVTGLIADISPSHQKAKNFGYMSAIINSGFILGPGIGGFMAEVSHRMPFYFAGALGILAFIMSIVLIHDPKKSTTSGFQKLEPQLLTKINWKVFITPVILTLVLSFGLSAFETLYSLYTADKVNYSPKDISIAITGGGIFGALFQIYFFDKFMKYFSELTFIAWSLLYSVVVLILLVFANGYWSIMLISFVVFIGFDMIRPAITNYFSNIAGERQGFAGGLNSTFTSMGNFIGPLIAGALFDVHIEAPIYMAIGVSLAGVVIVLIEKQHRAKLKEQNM

[15] = tested on: Staphylococcus aureus; assay: Additive antibacterial activity against Staphylococcus aureus RN4220 assessed as fractional inhibitory concentration index in presence of streptomycin; assay type: functional
[16] = tested on: Staphylococcus aureus; assay: Additive antibacterial activity against Staphylococcus aureus XU212 assessed as fractional inhibitory concentration index in presence of tetracycline; assay type: functional
[17] = tested on: Staphylococcus aureus; assay: Synergistic antibacterial activity against Staphylococcus aureus XU212 assessed as inhibition of microbial growth in presence of tetracycline; assay type: functional
[18] = tested on: Staphylococcus aureus; assay: Potency index, ratio of test compound MIC to norfloxacin MIC for antibacterial activity against fluoroquinolone-resistant Staphylococcus aureus SA1199B assessed as inhibition of microbial growth; assay type: functional
[19] = tested on: Staphylococcus aureus; assay: Synergistic antibacterial activity against Staphylococcus aureus XU212 assessed as tetracyclin MIC; assay type: functional
[20] = tested on: Staphylococcus aureus; assay: Synergistic antibacterial activity against Staphylococcus aureus […] assessed as streptomycin MIC; assay type: functional
[21] = tested on: Staphylococcus aureus; assay: Synergistic antibacterial activity against Staphylococcus aureus RN4220 assessed as inhibition of microbial growth in presence of streptomycin; assay type: functional
[22] = tested on: Staphylococcus aureus; assay: Antibacterial activity against fluoroquinolone-resistant Staphylococcus aureus SA1199B assessed as inhibition of microbial growth; assay type: functional
[23] = tested on: Staphylococcus aureus; assay: Synergistic antibacterial activity against Staphylococcus aureus RN4220 assessed as fractional inhibitory concentration index in presence of streptomycin; assay type: functional

SMILES | IC50 [1] | IC50 [2] | IC50 [3] | IC50 at 24 h [4] | MIC [10] | MIC [11] | fractional inhibitory concentration index (FICI) [12] | MIC [13] | inhibition [14] | Ratio [18] | other results
O=C1C=CC[C@H]([C@H](O)[C@H](c2ccccc2)c2c(O)cc3c(c2O)C(=O)C[C@@H](c2ccccc2)O3)O1 | > 100 µM | > 100 µM | > 100 µM | > 100 µM | – | – | – | – | – | – | –
CN(C)[C@@H]1C(O)=C(C(N)=O)C(=O)[C@@]2(O)C(O)=C3C(=O)c4c(O)cccc4[C@@](C)(O)[C@H]3C[C@@H]12 [TETRACYCLINE] | – | – | – | – | – | – | – | – | – | – | MIC [5]: 128 µg/mL
CN[C@@H]1[C@H](O[C@H]2[C@H](O[C@H]3[C@H](O)[C@@H](O)[C@H](N=C(N)N)[C@@H](O)[C@@H]3N=C(N)N)O[C@@H](C)[C@]2(O)C=O)O[C@@H](CO)[C@H](O)[C@H]1O [STREPTOMYCIN] | – | – | – | – | – | – | – | – | – | – | MIC [6]: 32 µg/mL
O=c1[nH]cc(F)c(=O)[nH]1 [FLUOROURACIL] | – | – | – | – | – | – | – | – | – | – | IC50 [7]: 43 µM; IC50 [8]: 84 µM; IC50 [9]: 32 µM
O=C1C=CC[C@H]([C@@H](O)[C@@H](c2ccccc2)c2c(O)cc(O)c3c2O[C@H](c2ccccc2)CC3=O)O1 | 82 µM | 82 µM | > 100 µM | > 100 µM | > 512 µg/mL | 64 µg/mL | 0.37 | 32 µg/mL | – | – | –
N#CC(C#N)=NNc1cccc(Cl)c1 | – | – | – | – | – | – | – | – | Active | – | –
O=C1C=CC[C@@H]([C@H](O)[C@@H](c2ccccc2)c2c(O)cc(O)c3c2O[C@H](c2ccccc2)CC3=O)O1 | > 100 µM | > 100 µM | > 100 µM | > 100 µM | 256 µg/mL | 16 µg/mL | 0.31 | 32 µg/mL | Active | 4 | fractional inhibitory concentration index (FICI) [15]: 0.5; IC50 [7]: 3.9 µM; fractional inhibitory concentration index (FICI) [16]: 0.62; MIC [5]: 512 µg/mL; MIC [17]: 64 µg/mL; IC50 [8]: 2.4 µM; IC50 [9]: 12 µM; MIC [6]: 64 µg/mL; MIC [19]: 64 µg/mL; MIC [20]: 16 µg/mL; MIC [21]: 16 µg/mL
CNC(=O)c1cc(Oc2ccc(NC(=O)Nc3ccc(Cl)c(C(F)(F)F)c3)cc2)ccn1 [SORAFENIB] | 9.2 µM | 14 µM | 15 µM | – | – | – | – | – | – | – | –
O=C1C=CC[C@@H]([C@@H](O)[C@H](Oc2c(O)cc3c(c2O)C(=O)C[C@@H](c2ccccc2)O3)c2ccccc2)O1 | 21 µM | 66 µM | 41 µM | > 100 µM | > 128 µg/mL | 16 µg/mL | 0.18 | 16 µg/mL | – | 8 | MIC [22]: 16 µg/mL
O=C1C=CC[C@H]([C@@H](O)[C@H](c2ccccc2)c2c(O)cc3c(c2O)C(=O)C[C@@H](c2ccccc2)O3)O1 | 33 µM | > 100 µM | > 100 µM | > 100 µM | > 512 µg/mL | 16 µg/mL | 0.28 | 32 µg/mL | Active | 4 | IC50 [7]: 2.6 µM; fractional inhibitory concentration index (FICI) [16]: 0.62; MIC [5]: > 512 µg/mL; MIC [17]: 64 µg/mL; IC50 [8]: 1.6 µM; IC50 [9]: 2.8 µM; MIC [6]: 64 µg/mL; MIC [19]: 64 µg/mL; MIC [20]: 8 µg/mL; MIC [21]: 16 µg/mL; fractional inhibitory concentration index (FICI) [23]: 0.37
O=C1C=CC[C@H]([C@@H](O)[C@H](Oc2c(O)cc3c(c2O)C(=O)C[C@@H](c2ccccc2)O3)c2ccccc2)O1 | > 100 µM | > 100 µM | > 100 µM | > 100 µM | > 128 µg/mL | 32 µg/mL | 0.25 | 16 µg/mL | – | 8 | MIC [22]: 16 µg/mL
CCn1cc(C(=O)O)c(=O)c2cc(F)c(N3CCNCC3)cc21 [NORFLOXACIN] | – | – | – | – | 128 µg/mL | – | – | – | – | – | –
O=C1C=CC[C@H]([C@@H](O)[C@H](c2ccccc2)c2c(O)cc(O)c3c2O[C@H](c2ccccc2)CC3=O)O1 | > 100 µM | > 100 µM | > 100 µM | > 100 µM | 128 µg/mL | 16 µg/mL | 0.37 | 32 µg/mL | Active | 4 | –
O=C1C=CC[C@@H]([C@@H](O)[C@@H](c2ccccc2)c2c(O)cc3c(c2O)C(=O)C[C@@H](c2ccccc2)O3)O1 | 30 µM | 63 µM | 63 µM | 90 µM | > 512 µg/mL | 8 µg/mL | 0.14 | 16 µg/mL | Active | 8 | fractional inhibitory concentration index (FICI) [16]: 0.62; MIC [5]: > 512 µg/mL; MIC [17]: 64 µg/mL; MIC [6]: 64 µg/mL; MIC [19]: 128 µg/mL; MIC [22]: 16 µg/mL; MIC [20]: 8 µg/mL; MIC [21]: 8 µg/mL; fractional inhibitory concentration index (FICI) [23]: 0.37
